In patent publication US20070275100A1, “Use of gaseous nitric oxide as an anti-cancer agent” (priority 1998, published 2007):
Where “and” joins values, the source holds several entries; their conditions need not be identical. Identical values can stand only once.

Legend:
[1] = test system: H441; assay: MTS cell proliferation assay, 25,000 ppm gNO (Example 4), H441; type: cell-based, human
Text: The purpose of this example is to illustrate the tumorcidal activity of high-dosage gNO. We examined the cellular sensitivity to 25,000 ppm of gNO on 5 non-small cell lung cancer (NSCLC) cells lines by an MTS cell proliferation assay.
Human lung cancer cell lines A549, NCI-H23, NCI-H460, HTB-58, H2170, and H441 (commercially available from American Type Culture Collection (“ATCC”), Manassas, Va.) were maintained in culture medium recommended by ATCC. All media were supplemented with 1% penicillin/streptomycin and 10% fetal bovine serum (commercially available from Invitrogen Gibco-BRL, Burlington, Ontario, Canada). […]
After 24 hours, the A549, NCI-H23, NCI-H460, HTB-58, H2170 and H441 cells were treated with 25,000 ppm gNO or air (control) for 1 minute, 3 minutes, 6 minutes, 9 minutes, 10 minutes, 20 minutes, and 30 minutes. Immediately following treatment, the viability of the cells was determined using a colorimetric MTS (3-(4,5-dimethylthiazol-2-yl)-5-(3-carboxymethoxyphenyl)-2-(4-sulfophenyl)-2H-tetrazolium, inner salt) cell proliferation assay (commercially available as the CellTiter 960 Aqueous One Solution Cell Proliferation Assay (MTS) from Promega, Madison, Wis., USA) according to the manufacturer's protocol. […] Absorbance was measured at 490 nm for each well using a micro-plate reader (commercially available from Dynex Technologies, Chantilly, Va., USA). […]

[2] = test system: A549-epithelial lung carcinoma cells; assay: MTS proliferation assay, A549 cells under continuous gNO exposure (Example 1); type: cell-based, human; conditions: for Corrected Average: blank subtracted; for survivability: 24 hours continuous exposure, compared to air (control)
Procedure: (gNO) 200 ppm and 350 ppm compared to air (control) on the survival of a representative line of cancer cells. Cancer cell lines (A549-epithelial lung carcinoma cells and H460-epithelial metastatic; large cell lung cancer cells) were prepared in F12 medium and suspended in six 96-well plates (3 treatment and 3 controls). […] The plates then were removed and cell viability assessed by an MTS proliferation assay.
When exposed to 350 ppm of gNO, however, cancer cell survival rates decrease dramatically.

[3] = test system: normal human endothelial lung vascular cells (NHVE); assay: Viability under 25,000 ppm gNO (Example 5), NHVE; type: cell-based
Procedure: (§1) After 24 hours, the A549, NCI-H23, NCI-H460, HTB-58, H2170 and H441 cells were treated with 25,000 ppm gNO or air (control) for 1 minute, 3 minutes, 6 minutes, 9 minutes, 10 minutes, 20 minutes, and 30 minutes. Immediately following treatment, the viability of the cells was determined using a colorimetric MTS (3-(4,5-dimethylthiazol-2-yl)-5-(3-carboxymethoxyphenyl)-2-(4-sulfophenyl)-2H-tetrazolium, inner salt) cell proliferation assay (commercially available as the CellTiter 960 Aqueous One Solution Cell Proliferation Assay (MTS) from Promega, Madison, Wis., USA) according to the manufacturer's protocol. Briefly, […] of MTS solution was added to each well and the cells were incubated for 2 hours at 37° C. Absorbance was measured at 490 nm for each well using a micro-plate reader (commercially available from Dynex Technologies, Chantilly, Va., USA). The relative percentage of cell survival (viability) was calculated by dividing the absorbance of treated cells by that of control cells for each experimental time point.
(§2) The purpose of this example is to illustrate the effects on normal human cell lines compared to the effects on cancerous cell lines of high-dosage gNO. The above study was repeated. […]

[4] = test system: normal human bronchial epithelial cells (NHBE); assay: Viability under 25,000 ppm gNO (Example 5), NHBE; type: cell-based; conditions: after 6 minutes, FIG. 8 A
Procedure: as §1, §2

[5] = 200 ppm NO, 1 hour, F12 medium, listed as NO
[6] = 200 ppm NO, 1 hour, HBSS medium
[7] = 200 ppm NO, 2.5 hours, F12 medium
[8] = 200 ppm NO, 2.5 hours, F12 medium, listed as NO
[9] = 200 ppm NO, 2.5 hours, HBSS medium
[10] = 200 ppm NO, 3.5 hours, F12 medium
[11] = 200 ppm NO, 3.5 hours, F12 medium, listed as NO
[12] = 200 ppm NO, 3.5 hours, HBSS medium
[13] = 350 ppm NO, 2 hours, F12 medium
[14] = 350 ppm NO, 2 hours, F12 medium, listed as NO

[N]=O [gNO, nitric oxide]
IC50 (exposure time) [1]: about 7 minutes | viability at 25000 ppm ([1]; Homo sapiens, NCI-H441, 0.15 h, at 9 minutes): ~17% | Average ([2]; 200 ppm NO, 1 hour, F12 medium): 0.852 | Survival ([2]; 200 ppm NO, 1 hour, F12 medium): up to 92% | Corrected Average ([2]; 200 ppm NO, 1 hour, F12 medium): 0.621 | MTS assay reading, individual wells [2, 5]: 0.842 and 0.955 and 0.793 and 0.818 and 0.828 and 0.78 and 0.805 and 0.936 and 0.959 and 0.91 and 0.827 and 0.8 and 0.795 and 0.759 and 0.945 and 0.886 | Survival [2, 5]: 92% | Average [2, 6]: 0.06 | MTS assay reading, individual wells [2, 6]: 0.062 (2×) and 0.058 (2×) and 0.057 (2×) and 0.056 (2×) and 0.06 (3×) and 0.067 (2×) and 0.059 and 0.055 | Survival [2, 6]: 0% | Corrected Average [2, 6]: 0 | Average [2, 7]: 1.276 | Survival [2, 7]: up to 90% | Corrected Average [2, 7]: 0.918 | MTS assay reading, individual wells [2, 8]: 1.261 and 1.178 and 1.33 and 1.422 and 1.454 and 1.458 and 1.354 and 1.105 and 1.348 and 1.082 and 1.329 and 1.237 and 1.272 and 0.995 and 1.284 and 1.299 | Survival [2, 8]: 90% | Average [2, 9]: 0.06 | MTS assay reading, individual wells [2, 9]: 0.063 and 0.059 (3×) and 0.058 (2×) and 0.061 and 0.06 (2×) and 0.069 (2×) and 0.057 (2×) and 0.056 and 0.062 | Survival [2, 9]: 0% | Corrected Average [2, 9]: 0 | Average [2, 10]: 1.529 | Survival [2, 10]: up to 87% | Corrected Average [2, 10]: 1.059 | MTS assay reading, individual wells [2, 11]: 1.587 and 1.525 and 1.665 and 1.444 and 1.642 and 1.332 and 1.639 and 1.551 and 1.567 and 1.863 and 1.335 and 1.325 and 1.575 and 1.227 and 1.561 and 1.625 | Survival [2, 11]: 87% | Average [2, 12]: 0.061 | MTS assay reading, individual wells [2, 12]: 0.063 (2×) and 0.059 (3×) and 0.058 (3×) and 0.061 (2×) and 0.06 and 0.069 and 0.057 and 0.056 and 0.07 | Survival [2, 12]: 0% | Corrected Average [2, 12]: 0 | survivability ([2]; 200 ppm gNO): greater than 90% | Average [2, 13]: 0.110 | Survival [2, 13]: about 2% | Corrected Average [2, 13]: 0.009 | MTS assay reading, individual wells [2, 14]: 0.104 and 0.115 and 0.106 (2×) and 0.110 and 0.116 and 0.119 | Survival [2, 14]: 1% | survivability ([2]; 350 ppm gNO): 1% | killing of normal endothelial cells ([3]; 6 minutes): rapidly killed | viability ([3]; after 6 minutes, FIG. 8 B): less than 10% | viability [4]: less than 10%
